From US8202885B2, “Bridged six-membered ring compounds” (Actelion Pharmaceuticals Ltd., priority 2007, dated 2012)

Tested on: human Cav3.1 Cav3.2 or Cav3.3 channel
Assay: In vitro assay T channel (FLIPR calcium fluorescence)
Assay type: cell-based
Settings: HEK293 cells expressing human Cav3.1, Cav3.2 or Cav3.3; 10 mM Ca2+-induced fluo-4 fluorescence; determined up to 10 μM; read-out: T channel antagonistic activity IC50
Experimental: The T channel antagonistic activity (IC50 values) of the compounds of formula (I) is determined in accordance with the following experimental method and data are shown in Table 1.
Human embryonic kidney (HEK293) cells expressing the human Cav3.1 Cav3.2 or Cav3.3 channel, respectively, are grown in culture medium (DMEM containing 10% heat-inactivated fetal calf serum (FCS), 100 U/ml penicillin, 100 μg/ml streptomycin and 1 mg/ml G418). The cells are seeded at 20.000 cells/well into 384-well black clear bottom sterile plates (poly-L-lysine-coated, Becton Dickinson). The seeded plates are incubated overnight at 37° C. in 5% CO2. The Ca^2+ solution is prepared as 100 mM stock solution in 100 mM tetraethylammoniumchloride (TEA-chloride), 50 mM HEPES, 2.5 mM CaCl2, 5 mM KCl, 1 mM MgCl2, adjusted to pH 7.2 with TEA-hydroxide, for use in the assay at a final concentration of 10 mM. Antagonists are prepared as 10 mM stock solutions in DMSO, then diluted in 384 w plates first in DMSO, then in 100 mM TEA-chloride, 50 mM HEPES, 2.5 mM CaCl2, 5 mM KCl, 1 mM MgCl2, adjusted to pH 7.2 with TEA-hydroxide, to obtain 9× stocks. On the day of the assay, 25 μl of staining buffer (HBSS containing 20 mM HEPES, 0.375 g/l NaHCO3 and 3 μM of the fluorescent calcium indicator fluo-4 AM (1 mM stock solution in DMSO, containing 10% pluronic) is added to each well of the seeded plate. The 384-well cell-plates are incubated for 60 min at 37° C. in 5% CO2 followed by washing with 2×50 μl per well using HBSS containing 0.1% BSA, 20 mM HEPES, 0.375 g/l NaHCO3, leaving 50 […] of this buffer for equilibration at room temperature (30-60 min). Within the Fluorescent Imaging Plate Reader (FLIPR, Molecular Devices), antagonists are added to the plate in a volume of 6.25 μl/well, incubated for 3 min, and finally 6.25 […] of Ca^2+ solution is added. Fluorescence is measured for each well at 2 second intervals for 8 minutes, and the area under the curve of each fluorescence peak is compared to the area of the fluorescence peak induced by 10 mM Ca^2+ with vehicle in place of antagonist. For each antagonist, the IC50 value (the concentration (in nM) of compound needed to inhibit 50% of the Ca^2+-induced fluorescence response) up to 10 μM is determined.

| SMILES | IC50 |
| --- | --- |
| CN(CCCc1ccccc1)CC[C@]1(O)C[C@H]2CC[C@@H]1C=C2c1ccccc1 (relative stereo) [Example 15, rac-(1R*,2R*,4R*)-2-{2-[Methyl-(3-phenyl-propyl)-amino]-ethyl}-5-phenyl-bicyclo[2.2.2]oct-5-en-2-ol] | > 10000 nM |
| COc1cccc2[nH]c(CCCN(C)CC[C@]3(O)C[C@H]4CC[C@@H]3C=C4c3ccccc3)nc12 (relative stereo) [Example 26, rac-(1R*,2R*,4R*)-2-(2-{[3-(4-Methoxy-1H-benzoimidazol-2-yl)-propyl]-methyl-amino}-ethyl)-5-phenyl-bicyclo[2.2.2]oct-5-en-2-ol] | > 10000 nM |
| COc1cccc2nc(CCN(C)CC[C@]3(O)C[C@H]4CC[C@@H]3C=C4c3ccccc3)[nH]c12 (relative stereo) [Example 32, rac-(1R*,2R*,4R*)-2-(2-{[2-(7-Methoxy-1H-benzoimidazol-2-yl)-ethyl]-methyl-amino}-ethyl)-5-phenyl-bicyclo[2.2.2]oct-5-en-2-ol] | 1480 nM |
| Cc1cccc(C)c1C1=C[C@H]2CC[C@@H]1C[C@@]2(O)CCN(C)CCCc1nc2ccccc2[nH]1 (relative stereo) [Example 3, rac-(1R*,2R*,4R*)-2-(2-{[3-(1H-Benzoimidazol-2-yl)-propyl]-methyl-amino}-ethyl)-5-(2,6-dimethyl-phenyl)-bicyclo[2.2.2]oct-5-en-2-ol] | 6630 nM |
| COc1ccc(OC)c2[nH]c(CCCN(C)CCC3(OC(=O)C(C)C)CC4CCC3C=C4c3ccccc3)nc12 [Example 70A, Isobutyric acid (1R,2R,4R)-2-(2-{[3-(4,7-dimethoxy-1H-benzoimidazol-2-yl)-propyl]-methyl-amino}-ethyl)-5-phenyl-bicyclo[2.2.2]oct-5-en-2-yl ester or isobutyric acid (1S,2S,4S)-2-(2-{[3-(4,7-dimethoxy-1H-benzoimidazol-2-yl)-propyl]-methyl-amino}-ethyl)-5-phenyl-bicyclo[2.2.2]oct-5-en-2-yl ester] | 793 nM |
| CC(C)C(=O)O[C@@]1(CCN(C)CCCc2nc3ccccc3[nH]2)C[C@H]2CC[C@@H]1C=C2c1ncco1 (relative stereo) [Example 25A, rac-Isobutyric acid (1R*,2R*,4R*)-2-(2-{[3-(1H-benzoimidazol-2-yl)-propyl]-methyl-amino}-ethyl)-5-oxazol-2-yl-bicyclo[2.2.2]oct-5-en-2-yl ester] | 1590 nM |
| COCC(C)(COC)C(=O)NCCCN(C)CC[C@]1(OC(=O)C(C)C)C[C@H]2CC[C@@H]1C=C2c1ccccc1 (relative stereo) [Example 43A, rac-Isobutyric acid (1R*,2R*,4R*)-2-(2-{[3-(3-methoxy-2-methoxymethyl-2-methyl-propionylamino)-propyl]-methyl-amino}-ethyl)-5-phenyl-bicyclo[2.2.2]oct-5-en-2-yl ester] | 2710 nM |
| COc1ccc(CCCN(C)CC[C@]2(O)C[C@H]3CC[C@@H]2C=C3c2ccccc2)cc1OC (relative stereo) [Example 39, rac-(1R*,2R*,4R*)-2-(2-{[3-(3,4-Dimethoxy-phenyl)-propyl]-methyl-amino}-ethyl)-5-phenyl-bicyclo[2.2.2]oct-5-en-2-ol] | > 10000 nM |
| CN(CCCc1nc2ccccc2[nH]1)CC[C@]1(O)C[C@H]2CC[C@@H]1C=C2c1ccc(F)cc1 (relative stereo) [Example 8, rac-(1R*,2R*,4R*)-2-(2-{[3-(1H-Benzoimidazol-2-yl)-propyl]-methyl-amino}-ethyl)-5-(4-fluoro-phenyl)-bicyclo[2.2.2]oct-5-en-2-ol] | 1790 nM |
| CC(C)C(=O)O[C@@]1(CCN(C)CCCc2nc3c(C(F)(F)F)cc(C(F)(F)F)cc3[nH]2)C[C@H]2CC[C@@H]1C=C2c1ccccc1 (relative stereo) [Example 62A, rac-Isobutyric acid (1R*,2R*,4R*)-2-(2-{[3-(4,6-bis-trifluoromethyl-1H-benzoimidazol-2-yl)-propyl]-methyl-amino}-ethyl)-5-phenyl-bicyclo[2.2.2]oct-5-en-2-yl ester] | 469 nM |
